These compounds were tested on Escherichia coli strain ATCC25922 (assay: standard microdilution assay to determine minimum inhibitory concentrations (MICs)). Details: Escherichia coli strain ATCC25922, microdilution.
Assay type: cell-based
Outline: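 E. coli strain ATCC25922 tested per CLSI microdilution methodology (about 100 microliters per well) to find minimum inhibitory concentrations. Activity scored categorically at a 16 micrograms/ml threshold.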

Row | SMILES | E. coli ATCC25922 MIC
1 | N=C(N)NCCCNCc1ccc(-n2cc3cc(-c4cccc(S(=O)(=O)N(CCn5cccn5)C5CCNCC5)c4)[nH]c3nc2=O)cc1 [Compound 1176] | + (a “+” indicates that the compound has an MIC value of 16 micrograms/ml or less)
2 | CC(N)CCOc1cccc(-c2cc3cn(-c4ccc(CNCCCNC(=N)N)cc4)c(=O)nc3[nH]2)c1 (stereo not shown) [Compound 1439] | + (a “+” indicates that the compound has an MIC value of 16 micrograms/ml or less)
3 | N=C(N)NCCCNCc1ccc(-n2cc3cc(-c4cc(C(=O)Nc5ccc(F)cn5)cc(N5CCNCC5)c4)[nH]c3nc2=O)cc1 [Compound 994] | + (a “+” indicates that the compound has an MIC value of 16 micrograms/ml or less)
4 | N=C(N)N[C@@H]1CCCN(Cc2ccc(-n3cc4cc(-c5ccc(S(=O)(=O)NC6CCNCC6)cc5)[nH]c4nc3=O)cc2)C1 [Compound 1119] | + (a “+” indicates that the compound has an MIC value of 16 micrograms/ml or less)
5 | N=C(N)NCCCNCc1ccc(-n2cc3cc(-c4cc(C(=O)NCC5CCCO5)cc(N5CCNCC5)c4)[nH]c3nc2=O)cc1 (stereo not shown) [Compound 1029] | + (a “+” indicates that the compound has an MIC value of 16 micrograms/ml or less)
6 | CC(=O)NCCCS(=O)(=O)c1ccc(-c2cc3cn(-c4ccc(CNCCCNC(=N)N)cc4)c(=O)nc3[nH]2)cc1 [Compound 1277] | − (a “−” indicates that the compound has an MIC value greater than 16 micrograms/ml)
7 | N=C(N)NCCCNCc1ccc(-c2cn3cc(-c4ccc(C(=O)N5CCC(N)CC5)cc4)[nH]c3nc2=O)cc1 [Compound 808] | + (a “+” indicates that the compound has an MIC value of 16 micrograms/ml or less)
8 | N=C(N)NCCCNC(=O)c1ccc(-n2cc3cc(-c4ccc(S(=O)(=O)CCCNC5CCCNC5)cc4)[nH]c3nc2=O)cc1 (stereo not shown) [Compound 1276] | + (a “+” indicates that the compound has an MIC value of 16 micrograms/ml or less)
9 | N=C(N)NCCCNCc1ccc(-c2cn3cc(-c4ccc(S(=O)(=O)N5CCN(C(=O)OCc6ccccc6)CC5)cc4)[nH]c3nc2=O)cc1 [Compound 790] | + (a “+” indicates that the compound has an MIC value of 16 micrograms/ml or less)
10 | N=C(N)NCCCNC(=O)c1ccc(-n2cc3cc(-c4ccc(S(=O)(=O)CCCNC5CCNCC5)cc4)[nH]c3nc2=O)cc1 [Compound 1261] | + (a “+” indicates that the compound has an MIC value of 16 micrograms/ml or less)
11 | CN(Cc1ccccc1)C(=O)c1cc(-c2cc3cn(-c4ccc(CNCCCNC(=N)N)cc4)c(=O)nc3[nH]2)cc(N2CCNCC2)c1 [Compound 989] | + (a “+” indicates that the compound has an MIC value of 16 micrograms/ml or less)
12 | CC(CCN)c1cc(-c2cc3cn(-c4ccc(CNCCCNC(=N)N)cc4)c(=O)nc3[nH]2)ccc1Cl (stereo not shown) [Compound 2093a] | + (a “+” indicates that the compound has an MIC value of 16 micrograms/ml or less)
13 | N=C(N)NCCCNCc1ccc(-n2cc3cc(-c4cc(CCCCN)cc(SC(F)(F)F)c4)[nH]c3nc2=O)cc1 [Compound 2046a] | + (a “+” indicates that the compound has an MIC value of 16 micrograms/ml or less)
14 | N=C(N)NCCCNCc1ccc(-n2cc3cc(-c4ccc(Cl)c(CCCCN)c4)[nH]c3nc2=O)cc1 [Compound 2089a] | + (a “+” indicates that the compound has an MIC value of 16 micrograms/ml or less)
15 | COCCOCCN(C1CCNCC1)S(=O)(=O)c1ccc(-c2cc3cn(-c4ccc(CNCCCNC(=N)N)cc4)c(=O)nc3[nH]2)cc1 [Compound 802] | + (a “+” indicates that the compound has an MIC value of 16 micrograms/ml or less)
16 | N=C(N)NCCCNCc1ccc(-n2cc3cc(-c4cc(C(=O)N5CCC(C(N)=O)CC5)cc(N5CCNCC5)c4)[nH]c3nc2=O)cc1 [Compound 911] | − (a “−” indicates that the compound has an MIC value greater than 16 micrograms/ml)
17 | CC(CN)CN1CCC(c2cc3cn(-c4ccc(CNCCCNC(=N)N)cc4)c(=O)nc3[nH]2)C1 (mixture of isomers) [Compound 2016a] | + (a “+” indicates that the compound has an MIC value of 16 micrograms/ml or less)
18 | N=C(N)NCCCNCc1ccc(-c2cn3cc(-c4ccc(C(=O)NCCO)cc4)[nH]c3nc2=O)cc1 [Compound 828] | + (a “+” indicates that the compound has an MIC value of 16 micrograms/ml or less)
19 | N=C(N)NCCCNC(=O)c1ccc(-n2cc3cc(-c4ccc(S(=O)(=O)N(CC5CC5)C5CCNCC5)cc4)[nH]c3nc2=O)cc1 [Compound 996] | + (a “+” indicates that the compound has an MIC value of 16 micrograms/ml or less)
20 | N=C(N)NCCCNCc1ccc(-n2cc3cc(-c4ccc(S(=O)(=O)CCN)cc4)[nH]c3nc2=O)cc1 [Compound 1130] | + (a “+” indicates that the compound has an MIC value of 16 micrograms/ml or less)
21 | NC(N)=NCCCNCc1ccc(-n2cc3cc(CCS(=O)(=O)CCNC4CCNCC4)[nH]c3nc2=O)cc1 [Compound 1251] | + (a “+” indicates that the compound has an MIC value of 16 micrograms/ml or less)
22 | N=C(N)NCCCNCc1ccc(-n2cc3cc(-c4cccc(OCC5(CN)CC5)c4)[nH]c3nc2=O)cc1 [Compound 1413] | + (a “+” indicates that the compound has an MIC value of 16 micrograms/ml or less)

Same assay, conditions: Escherichia coli, ATCC25922, Escherichia coli strain ATCC25922, microdilution; read-out: E. coli ATCC25922 MIC

Row | MIC [µg/mL] | SMILES
23 | > 16 | NCCCNCc1ccc(-c2cn3cc(-c4ccc(C(=O)N5CC[C@@H](F)C5)cc4)[nH]c3nc2=O)cc1 [Compound 668]
24 | > 16 | O=c1nc2[nH]c3ccccc3c2cn1C1CCNC1 (stereo not shown) [Compound 597]
25 | > 16 | NCCCN(CCCN)Cc1ccc(-n2cc3cc(-c4ccc(C(=O)NC5CCOCC5)cc4)[nH]c3nc2=O)cc1 [Compound 193]
26 | > 16 | NCc1ccc(-n2cc3cc(-c4cccc(OCCCN5CCNCC5)c4)[nH]c3nc2=O)cc1 [Compound 1107]
27 | > 16 | N=C(N)NCCCNCc1ccc(-n2cc3cc(CCN4CCS(=O)(=O)CC4)[nH]c3nc2=O)cc1 [Compound 785]
28 | > 16 | NCCCNCc1ccc(-n2cc3cc(-c4ccccc4Cl)[nH]c3nc2=O)cc1 [Compound 288]
29 | < 16 | N=C(N)NCCCNCc1ccc(-n2cc3cc(CCS(=O)(=O)NC4CCNCC4)[nH]c3nc2=O)cc1 [Compound 926]
30 | > 16 | NCCCNCc1ccc(-n2cc3cc(-c4cc(F)c(F)c(F)c4)[nH]c3nc2=O)cc1 [Compound 306]
31 | < 16 | NCCCN(CCCN)Cc1ccc(-n2cc3cc(-c4ccc(C(=O)N(Cc5cc(F)cc(F)c5)C5CCNCC5)cc4)[nH]c3nc2=O)cc1 [Compound 225]
32 | < 16 | CN(CCCNCc1ccc(-n2cc3cc(-c4ccc(C(=O)NC5CCNCC5)cc4)[nH]c3nc2=O)cc1)C(=N)N [Compound 241]
33 | > 16 | NCCCNCc1ccc(-n2cc3cc(-c4ccc([C@H]5OC(=O)N[C@@H]5CO)cc4)[nH]c3nc2=O)cc1 [Compound 939]
34 | > 16 | CO[C@@H](CN)COc1cccc(-c2cc3cn(-c4ccc(CN)cc4)c(=O)nc3[nH]2)c1 [Compound 1444]

Row | SMILES | MIC [µg/mL]
35 | NCCCN1CC=C(c2cn3cc[nH]c3nc2=O)CC1 [Compound 571] | > 16
36 | N=C(N)NCCCN(CCCN)Cc1ccc(-n2cc3cc(-c4ccc(S(=O)(=O)NC5CN6CCC5CC6)cc4)[nH]c3nc2=O)cc1 (stereo not shown) [Compound 219] | < 16
37 | CCCCN1CC=C(c2cn3cc(-c4ccc(F)cc4)[nH]c3nc2=O)CC1 [Compound 565] | > 16

— patent publication US9193731B2, “Antimicrobial compounds and methods of making and using the same” (Melinta Therapeutics, Inc., priority 2009, dated 2015)
